Test results taken from patent US20160223554A1, “METHODS FOR DIAGNOSIS, PROGNOSIS AND METHODS OF TREATMENT” (priority 2011, published 2016).

How the values were obtained:
AML blasts [1] = experiment: SCNP signaling and apoptosis nodes in AML BMMC (Example 4, Study No. 2); format: cell-based, human
AML blasts [2] = experiment: SCNP phospho-flow signaling nodes in AML PBMC (Example 2, Study No. 1); format: cell-based, human; conditions: for Mean Value of CRs: CR patients; for Mean Value of CRs / Mean Value of NRs: Study No. 1; for Mean Value of NRs: NR patients
Procedure: Frozen cells are thawed in a 37° C. water bath and gently resuspended in the vial and transferred to the 15 mL conical tube. The 15 mL tube is centrifuged at 930 RPM (200×g) for 8 minutes at room temperature. The supernatant is aspirated and the pellet is gently resuspended in 1 mL media A. The cell suspension is filtered through a 70 um cell strainer into a new 15 mL tube. The cell strainer is rinsed with 1 mL media A and another 12 ml of media A into the 15 mL tube. The cells are mixed into an even suspension. A 20 μL aliquot is immediately removed into a 96-well plate containing 180 μL PBS+4% FBS+CD45 Alexa 700+PI to determine cell count and viability post spin. After the determination, the 15 mL tubes are centrifuged at 930 RPM (200×g) for 8 minutes at room temperature. The supernatant is aspirated and the cell pellet is gently resuspended in 4 mL PBS+4 μL Amine Aqua and incubated for 15 min in a 37° C. incubator. 10 mL RPMI+1% FBS is added to the cell suspension and the tube is inverted to mix the cells. The 15 mL tubes are centrifuged at 930 RPM (200×g) for 8 minutes at room temperature. The cells are resuspended in Media A at the desired cell concentration (1.25×10^6/mL). For samples with low numbers of cells (<18.5×10^6), the cells are resuspended in up to 15 mL media. For samples with high numbers of cells (>18.5×10^6), the volume is raised to 10 mL with media A and the desired volume is transferred to a new 15 mL tube, and the cell concentration is adjusted to 1.25×10^6 cells/ml. 1.6 mL of the above cell suspension (concentration at 1.25×10^6 cells/ml) is transferred into wells of a multi-well plate. From this plate, 80 ul is dispensed into each well of a subsequent plate. The plates are covered with a lid (Nunc) and placed in a 37° C. incubator for 2 hours to rest.
A concentration for each stimulant that is five folds more (5×) than the final concentration is prepared using Media A as diluent. 5× stimuli are arrayed into wells of a standard 96 well v-bottom plate that correspond to the wells on the plate with cells to be stimulated.
Adding the stimulant: The cell plate(s) are taken out of the incubator and placed in a 37° C. water bath next to the pipette apparatus. The cell plate is taken from the water bath and gently swirled to resuspend any settled cells. With pipettor, the stimulant is dispensed into the cell plate and vortexed at “7” for 5 seconds. The deep well plate is put back into the water bath.
The plate is covered with foil sealer and incubated in a 37° C. water bath for 10 minutes. The plate is spun for 6 minutes at 2000 rpm at room temperature. The cells are aspirated using a 96 well plate aspirator (VP Scientific). The plate is vortexed to resuspend cell pellets in the residual volume. The pellet is ensured to be dispersed before the Methanol step (see cell permeabilization) or clumping will occur.
Cell Permeabilization: Permeability agent, for example methanol, is added slowly and while the plate is vortexing. To do this, the cell plate is placed on titer plate shaker and made sure it is secure. The plate is set to shake using the highest setting. A pipetter is used to add 0.6 mls of 100% methanol to the plate wells. The plate(s) are put on ice until this step has been completed for all plates. Plates are covered with a foil seal using the plate roller to achieve a tight fit. At this stage the plates can be stored at −80° C.
Cells are thawed if frozen. Cells are pelleted at 2000 rpm 5 minutes. Supernatant is aspirated with vacuum aspirator. Plate is vortexed on a “plate vortex” for 5-10 seconds. Cells are washed with 1 mL FACS buffer. Repeat the spin, aspirate and vortex steps as above. 50 μL of FACS/stain buffer with the desired, previously optimized, antibody cocktail is added to two rows of cells at a time and agitate the plate. The plate is covered and incubated in a shaker for 30 minutes at room temperature (RT). During this incubation, the compensation plate is prepared.

[3] = Fold metric, all patients, Study No. 2
[4] = Study No.2, patients less than 60 years old
[5] = Study No.2, patients with Secondary AML
[6] = Study No.2, patients age 60 and older
[7] = Fold metric, Study No. 1, CRp patient included in NR group
[8] = Total Phospho metric, Study No. 1, CRp patient included in NR group
[9] = read-out p-CREB, metric TotalPhospho
[10] = read-out p-S6, metric TotalPhospho
[11] = Study No.2, patients with De Novo AML
[12] = read-out p-Stat1, metric TotalPhospho
[13] = read-out p-Stat3, metric TotalPhospho
[14] = read-out p-Plcγ2, metric TotalPhospho
[15] = read-out p-Akt, metric TotalPhospho
[16] = read-out p-Erk, metric TotalPhospho

COc1cc([C@@H]2c3cc4c(cc3[C@@H](O[C@@H]3O[C@@H]5CO[C@@H](C)O[C@H]5[C@H](O)[C@H]3O)[C@H]3COC(=O)[C@H]23)OCO4)cc(OC)c1O [Etoposide, reference compound]
Mean Value of CRs, c-PARP (AML blasts [1]; [3]): 0.79 | Mean Value of NRs, c-PARP (AML blasts [1]; [3]): 0.25 | Mean Value of CRs, p-Chk2−,c-PARP+ Quad (AML blasts [1]; [4]): 21.17 | Mean Value of NRs, p-Chk2−,c-PARP+ Quad (AML blasts [1]; [4]): 9.58 | Mean Value of CRs, p-Chk2+,c-PARP− Quad (AML blasts [1]; [5]): 20.98 | Mean Value of CRs, p-Chk2−,c-PARP+ Quad (AML blasts [1]; [5]): 32.71 | Mean Value of NRs, p-Chk2+,c-PARP− Quad (AML blasts [1]; [5]): 55.02 | Mean Value of NRs, p-Chk2−,c-PARP+ Quad (AML blasts [1]; [5]): 13.24

OO [H2O2, reference compound]
Mean Value of CRs (AML blasts [2]; read-out p-Lck, metric Fold): 0.42 | Mean Value of NRs (AML blasts [2]; read-out p-Lck, metric Fold): 0.12 | Mean Value of CRs (AML blasts [2]; read-out p-SLP 76, metric Fold): 1.35 | Mean Value of NRs (AML blasts [2]; read-out p-SLP 76, metric Fold): 0.08 | Mean Value of CRs, p-Akt (AML blasts [1]; [3]): 0.68 | Mean Value of NRs, p-Akt (AML blasts [1]; [3]): 0.91 | Mean Value of CRs, p-Akt Fold (AML blasts [1]; [6]): 0.45 | Mean Value of CRs, p-Akt TotalPhospho (AML blasts [1]; [6]): 0.84 | Mean Value of CRs, p-Plcγ2 TotalPhospho (AML blasts [1]; [6]): 1.19 | Mean Value of NRs, p-Akt Fold (AML blasts [1]; [6]): 0.88 | Mean Value of NRs, p-Akt TotalPhospho (AML blasts [1]; [6]): 1.33 | Mean Value of NRs, p-Plcγ2 TotalPhospho (AML blasts [1]; [6]): 1.86

CCCCCCCCCCCCCC(=O)O[C@@H]1[C@@H](C)[C@@]2(O)[C@@H](C=C(CO)C[C@]3(O)C(=O)C(C)=C[C@@H]23)[C@@H]2C(C)(C)[C@]12OC(C)=O [PMA, reference compound]
Mean Value of NRs, p-Erk (AML blasts [2]; [7]): 2.03 | Mean Value of CRs, p-Erk (AML blasts [1]; [3]): 2.82 | Mean Value of NRs, p-Erk (AML blasts [1]; [3]): 1.74

CN[C@@H]1C[C@H]2O[C@@](C)([C@@H]1OC)n1c3ccccc3c3c4c(c5c6ccccc6n2c5c31)C(=O)NC4 [Stautospotine]
Mean Value of CRs, c-PARP Fold (AML blasts [1]; [4]): 3.47 | Mean Value of NRs, c-PARP Fold (AML blasts [1]; [4]): 7.06

C/C=C(/C)C(=O)O[C@H]1C(C)=C2[C@H]([C@@H]1OC(=O)CCCCCCC)[C@@](C)(OC(C)=O)C[C@H](OC(=O)CCC)[C@@]1(O)[C@H]2OC(=O)[C@@]1(C)O [Thapsigargin, reference compound]
Mean Value of CRs, p-S6 (AML blasts [2]; [7]): 0.03 | Mean Value of NRs, p-S6 (AML blasts [2]; [7]): 0.31 | Mean Value of CRs, p-CREB (AML blasts [2]; [8]): 1.79 | Mean Value of CRs, p-S6 (AML blasts [2]; [8]): 0.31 | Mean Value of NRs, p-CREB (AML blasts [2]; [8]): 2.77 | Mean Value of NRs, p-S6 (AML blasts [2]; [8]): 0.67 | Mean Value of CRs (AML blasts [2]; [9]): 1.90 | Mean Value of NRs (AML blasts [2]; [9]): 2.76 | Mean Value of CRs (AML blasts [2]; read-out p-S6, metric Fold): 0.04 | Mean Value of NRs (AML blasts [2]; read-out p-S6, metric Fold): 0.32 | Mean Value of CRs (AML blasts [2]; [10]): 0.31 | Mean Value of NRs (AML blasts [2]; [10]): 0.68 | Mean Value of CRs, p-Erk (AML blasts [1]; [3]): 1.22 | Mean Value of NRs, p-Erk (AML blasts [1]; [3]): 0.36 | Mean Value of CRs, p-CREB TotalPhospho (AML blasts [1]; [4]): 2.83 | Mean Value of CRs, p-Erk Fold (AML blasts [1]; [4]): 1.28 | Mean Value of NRs, p-CREB TotalPhospho (AML blasts [1]; [4]): 3.71 | Mean Value of NRs, p-Erk Fold (AML blasts [1]; [4]): 0.40 | Mean Value of CRs, p-Erk Fold (AML blasts [1]; [11]): 1.28 | Mean Value of NRs, p-Erk Fold (AML blasts [1]; [11]): 0.27

EPO
Mean Value of CRs, p-Stat1 (AML blasts [2]; [8]): 0.17 | Mean Value of CRs, p-Stat3 (AML blasts [2]; [8]): 0.64 | Mean Value of NRs, p-Stat1 (AML blasts [2]; [8]): 0.42 | Mean Value of NRs, p-Stat3 (AML blasts [2]; [8]): 1.23 | Mean Value of CRs (AML blasts [2]; [12]): 0.20 | Mean Value of NRs (AML blasts [2]; [12]): 0.42 | Mean Value of CRs (AML blasts [2]; [13]): 0.72 | Mean Value of NRs (AML blasts [2]; [13]): 1.23

IGF-1
Mean Value of CRs, p-CREB Alexa488 (AML blasts [2]; [8]): 1.11 | Mean Value of CRs, p-CREB PE (AML blasts [2]; [8]): 1.42 | Mean Value of CRs, p-Plcγ2 (AML blasts [2]; [8]): 1.82 | Mean Value of NRs, p-CREB Alexa488 (AML blasts [2]; [8]): 1.62 | Mean Value of NRs, p-CREB PE (AML blasts [2]; [8]): 2.29 | Mean Value of NRs, p-Plcγ2 (AML blasts [2]; [8]): 2.76 | Mean Value of CRs (AML blasts [2]; [9]): 1.52 | Mean Value of NRs (AML blasts [2]; [9]): 2.29 | Mean Value of CRs (AML blasts [2]; [14]): 1.91 | Mean Value of NRs (AML blasts [2]; [14]): 2.76

IL-l0
Mean Value of CRs, p-Stat1 (AML blasts [2]; [8]): 0.17 | Mean Value of NRs, p-Stat1 (AML blasts [2]; [8]): 0.47

SDF -1α
Mean Value of CRs (AML blasts [2]; [15]): 0.57 | Mean Value of NRs (AML blasts [2]; [15]): 1.04

TNFα
Mean Value of CRs (AML blasts [2]; [16]): 1.25 | Mean Value of NRs (AML blasts [2]; [16]): 1.65

B1: M-CSF (protein, UniProt P09603 33-554, looked up)
Macrophage colony-stimulating …: EEVSEYCSHMIGSGHLQSLQRLIDSQMETSCQITFEFVDQEQLKDPVCYLKKAFLLVQDIMEDTMRFRDNTPNAIAIVQLQELSLRLKSCFTKDYEEHDKACVRTFYETPLQLLEKVKNVFNETKNLLDKDWNIFSKNCNNSFAECSSQDVVTKPDCNCLYPKAIPSSDPASVSPHQPLAPSMAPVAGLTWEDSEGTEGSSLLPGEQPLHTVDPGSAKQRPPRSTCQSFEPPETPVVKDSTIGGSPQPRPSVGAFNPGMEDILDSAMGTNWVPEEASGEASEIPVPQGTELSPSRPGGGSMQTEPARPSNFLSASSPLPASAKGQQPADVTGTALPRVGPVRPTGQDWNHTPQKTDHPSALLRDPPEPGSPRISSLRPQGLSNPSTLSAQPQLSRSHSSGSVLPLGELEGRRSTRDRRSPAEPEGGPASEGAARPLPRFNSVPLTDTGHERQSEGSFSPQLQESVFHLLVPSVILVLLAVGGLLFYRWRRRSHQEPQRADSPLEQPEGSPLTQDDRQVELPV
Mean Value of CRs, p-Akt (AML blasts [2]; [7]): −0.16 | Mean Value of NRs, p-Akt (AML blasts [2]; [7]): 0.05 | Mean Value of CRs, p-CREB (AML blasts [2]; [8]): 1.26 | Mean Value of CRs, p-Plcγ2 (AML blasts [2]; [8]): 1.79 | Mean Value of NRs, p-CREB (AML blasts [2]; [8]): 1.76 | Mean Value of NRs, p-Plcγ2 (AML blasts [2]; [8]): 2.8 | Mean Value of CRs (AML blasts [2]; [14]): 1.86 | Mean Value of NRs (AML blasts [2]; [14]): 2.81

B2: CD40L (protein, UniProt P29965 113-261, looked up)
CD40 ligand, soluble form: MQKGDQNPQIAAHVISEASSKTTSVLQWAEKGYYTMSNNLVTLENGKQLTVKRQGLYYIYAQVTFCSNREASSQAPFIASLCLKSPGRFERILLRAANTHSSAKPCGQQSIHLGGVFELQPGASVFVNVTDPSQVSHGTGFTSFGLLKL
Mean Value of CRs, p-CREB (AML blasts [2]; [8]): 1.37 | Mean Value of CRs, p-Erk (AML blasts [2]; [8]): 1.18 | Mean Value of NRs, p-CREB (AML blasts [2]; [8]): 2.67 | Mean Value of NRs, p-Erk (AML blasts [2]; [8]): 1.62 | Mean Value of CRs (AML blasts [2]; [9]): 1.55 | Mean Value of NRs (AML blasts [2]; [9]): 2.66 | Mean Value of CRs (AML blasts [2]; [16]): 1.18 | Mean Value of NRs (AML blasts [2]; [16]): 1.64
